Test results from patent US10213451B2, “Methods and compounds for modulating the secretion or expression of adhesion proteins or angiopoietins of cells” (PACIFIC ARROW LIMITED, priority 2004, dated 2019).

Key:
Type in all cases: cell-based, human
[1] = tested on: collagen expression in ES2 cells; assay: Microarray gene expression, Table 5
Protocol: (§1) Y/D is the ratio (in folds) of gene expression in cells treated with compound Y as compared with those of the no drug control (D),
(§2) YM/D is the ratio of gene expression in cells treated with compound YM (ACH-Y, Y without sugar moiety) compared with those of the no drug control (D)
(§3) Cell culture and drug-treatment.: ES2 cells were seeded in a T-25 flask with 4.5 million cells per flask for 24 hours. Cell culture was replaced with fresh medium with xanifolia-Y (Y) or DMSO no drug control (D) for 24 hours. Cells were then harvested for RNA isolation. Three experiments were done.
(§4) RNA extraction, labeling, hybridization, and data analysis. RNA was extracted from tumor cells using the Qiagen RNeasy Kit. RNA quality and quantity was checked by the Agilent BioAnalyzer and the NanoDrop® ND-1000 spectrophotometer respectively before further manipulation. The first and second cDNA strands were synthesized from 20 ng of total RNA using the Affymetrix T7 oligo(dT) primer protocol and kit for the two-cycle amplification. To produce amplified biotin-labeled-cRNA, the cDNA was […] by in vitro transcription using the MegaScript kit from Ambion. 15.0 μg of the labeled cRNA was fragmented and re-checked for concentration using the NanoDrop® ND-1000 spectrophotometer. A hybridization cocktail containing Affymetrix spike-in controls and fragmented labeled cRNA was loaded onto the Human U133 Plus 2.0 GeneChip® oligonucleotide array. The Affymetrix array (Affymetrix, Inc. Santa Clara, Calif.) is comprised of over 1,300,000 unique oligonucleotide features that represent greater than 38,500 well-substantiated human genes. The array was hybridized for 16 hours at 45° C. with rotation at 60 rpm then washed and stained with a strepavidin, R-phycoerythrin conjugate stain on the Affymetrix Fluidicis Station 450. Signal amplification was done using biotinylated antistreptavidin. The arrays were scanned using the GeneChip® 3000 confocal laser scanner with autoloader. The images were analyzed and quality control metrics recorded using Affymetrix GCOS software version 1.4. Lastly, the expression value for each gene was calculated using dChip PM-only model based or Plier algorithm.
(§5) Pairwise comparisons were made as follows: Treated vs. Control (Y vs. D), Modified Drug vs Control (YM/ACY-H vs. D) and Treated vs. Modified Drug (Y vs. YM/ACH-Y) Cel files analyzed using the Bioconductor package of R Statistical programming. Limma analysis generated a reasonable number of changing genes between the samples.
(§6) The raw data in the .CEL files were normalized by the GCRMA method (robust multi-array analysis). It is implemented in Bioconductor (http://www.bioconductor.org/). The raw signal intensity data were normalized, background corrected and summarized based on certain statistical models, and an expression value, in log 2-scale, is obtained per chip per probe set. Then the null hypothesis was tested that there's no significant changes in gene expression between the treatment pairs. This was done by LIMMA and is also implemented in Bioconductor. It uses empirical Bayes method to estimate the variance in gene expression. One comparison was made, namely, High Grade vs. Low Grade. The raw p-values were adjusted by the Benjamnin-Hochberg method for false discovery rate (FDR) control. All data sets contained a significant number of genes with a p-value less than 0.05, which is that the probability that a gene is NOT differential expressed (false positive) is 1:20.

[2] = tested on: Fibronectin secretion from liver HepG2 cells; assay: Fibronectin secretion (Western blot), HepG2 cells; settings: 10 ug/ml
[3] = tested on: integrin expression in ES2 cells; assay: Microarray gene expression, Table 6
Protocol: as §1, §2, §3, §4, §5, §6

[4] = tested on: CD54 expression in ES2 cells; assay: Microarray gene expression, Table 11; settings: probe 202638_s_at
Protocol: as §1, §2, §3
(§7) RNA extraction, labeling, hybridization, and data analysis. RNA was extracted from tumor cells using the Qiagen RNeasy Kit. RNA quality and quantity was checked by the Agilent BioAnalyzer and the NanoDrop® ND-1000 spectrophotometer respectively before further manipulation. […] The images were analyzed and quality control metrics recorded using Affymetrix GCOS software version 1.4. Lastly, the expression value for each gene was calculated using dChip PM-only model based or Plier algorithm.
(§8) Pairwise comparisons were made as follows: Treated vs. Control (Y vs. D), Modified Drug vs Control (YM/ACY-H vs. D) and Treated vs. Modified Drug (Y vs. YM/ACH-Y) Cel files analyzed using the Bioconductor package of R Statistical programming. […]

[5] = tested on: fibronectin expression in ES2 cells; assay: Microarray gene expression, Table 1
Protocol: as §1, §2, §3, §4, §5, §6

[6] = tested on: Fibronectin secretion from brain glioblastoma T98G cells; assay: Fibronectin secretion (Western blot), T98G cells
[7] = tested on: tenascin-C expression in ES2 cells; assay: Microarray gene expression, Table 9; settings: probe 201645_at
Protocol: as §1, §2, §3, §7, §8

[8] = tested on: myosin expression in ES2 cells; assay: Microarray gene expression, Table 7
Protocol: as §1, §2, §3, §4, §5, §6

C/C=C(/C)C(=O)O[C@H]1[C@H](OC(=O)/C(C)=C\C)[C@@]2(CO)C(CC1(C)C)C1=CCC3[C@@]4(C)CC[C@H](O[C@@H]5OC(C(=O)O)[C@@H](O)C(O[C@@H]6O[C@@H](CO)C(O)C6O)C5O[C@@H]5OC(CO)[C@H](O)C(O)C5O)C(C)(C)C4CC[C@@]3(C)[C@]1(C)[C@@H](O)[C@H]2O (stereo partly drawn) [Xanifolia-Y, 3-O-[β-D-galactopyranosyl (1→2)]-α-L-arabinofuranosy (1→3)-β-D-glucuronopyranosyl-21,22-O-diangeloyl-3β, 15α, 16α, 21β, 22α, 28-hexahydroxyolean-12-ene]
COL12A1 collagen, type XII, alpha 1, gene expression ratio to no drug control (D) ([1]; probe 231766_s_at): −2.8 folds | CCBE1 collagen and calcium binding EGF domains 1, gene expression ratio to no drug control (D) ([1]; probe 242324_x_at): −1.3 folds | COL5A1 collagen, type V, alpha 1, gene expression ratio to no drug control (D) ([1]; probe 1556138_a_at): −2.2 folds | P4HA2 procollagen-proline, 2-oxoglutarate 4-dioxygenase, alpha polypeptide II, gene expression ratio to no drug control (D) ([1]; probe 1568611_at): −1.3 folds | expression ratio to the control, collagen ([1]; span over probes of Table 5): −1.3 to −3.0 folds | % inhibition of Fibronectin secretion ([2]; HepG2 cells): 48% | inhibition at 10 µg/mL ([2]; Homo sapiens, HepG2, HepG2 cells): 42% | ITGA3 integrin, alpha 3, gene expression ratio to no drug control (D) ([3]; probe 201474_s_at): −1.6 folds | ITGA6 integrin, alpha 6, gene expression ratio to no drug control (D) ([3]; probe 201656_at): −1.5 folds | ITGAV integrin, alpha V (vitronectin receptor), gene expression ratio to no drug control (D) ([3]; probe 202351_at): −1.8 folds | ITGBL1 Integrin, beta-like 1, gene expression ratio to no drug control (D) ([3]; probe 205422_s_at): −1.9 folds | ITGA4 integrin, alpha 4, gene expression ratio to no drug control (D) ([3]; probe 205884_at): −1.6 folds | ITGA4 integrin, alpha 4, gene expression ratio to no drug control (D) ([3]; probe 205885_s_at): −1.7 folds | ITGA4 integrin, alpha 4, gene expression ratio to no drug control (D) ([3]; probe 213416_at): −1.6 folds | ITGB5 Integrin, beta 5, gene expression ratio to no drug control (D) ([3]; probe 214021_x_at): −1.5 folds | ITGBL1 Integrin, beta-like 1, gene expression ratio to no drug control (D) ([3]; probe 214927_at): −1.7 folds | ITGA6 integrin, alpha 6, gene expression ratio to no drug control (D) ([3]; probe 215177_s_at): −1.6 folds | CD47 antigen (integrin-associated signal transducer), gene expression ratio to no drug control (D) ([3]; probe 227259_at): −1.6 folds | ITGB2 integrin, beta 2, gene expression ratio to no drug control (D) ([3]; probe 1555349_a_at): −1.6 folds | ITGBL1 Integrin, beta-like 1, gene expression ratio to no drug control (D) ([3]; probe 1557080_s_at): −1.7 folds | expression ratio to the control, integrin family ([3]; span over probes of Table 6): −1.5 to −1.9 folds | ICAM1 intercellular adhesion molecule 1 (CD54), gene expression ratio to no drug control (D) [4]: 1.6 folds | FN1 fibronectin 1, gene expression ratio to no drug control (D) ([5]; probe 210495_x_at): −2.5 folds | FN1 fibronectin 1, gene expression ratio to no drug control (D) ([5]; probe 211719_x_at): −2.6 folds | FN1 fibronectin 1, gene expression ratio to no drug control (D) ([5]; probe 212464_s_at): −2.7 folds | FN1 fibronectin 1, gene expression ratio to no drug control (D) ([5]; probe 216442_x_at): −2.6 folds | % inhibition of Fibronectin secretion ([6]; 10 ug/ml, listed as Y3): 26% | inhibition at 10 µg/mL ([6]; Homo sapiens, T98G, 10 ug/ml): 27% | inhibition at 20 µg/mL ([6]; Homo sapiens, T98G, 20 ug/ml): 74% | TNC Tenascin C (hexabrachion), gene expression ratio to no drug control (D) [7]: −3.2 folds | MYLK myosin, light polypeptide kinase, gene expression ratio to no drug control (D) ([8]; probe 202555_s_at): −1.6 folds | MYO6 myosin VI, gene expression ratio to no drug control (D) ([8]; probe 203215_s_at): −1.6 folds | MYO5A myosin VA, gene expression ratio to no drug control (D) ([8]; probe 204527_at): −1.6 folds | MYH9 myosin, heavy polypeptide 9, non-muscle, gene expression ratio to no drug control (D) ([8]; probe 211926_s_at): −2.2 folds | MYO1D myosin ID, gene expression ratio to no drug control (D) ([8]; probe 212338_at): −1.7 folds | MYH10 myosin, heavy polypeptide 10, non-muscle, gene expression ratio to no drug control (D) ([8]; probe 212372_at): −1.7 folds | MYLK myosin, light polypeptide kinase, gene expression ratio to no drug control (D) ([8]; probe 224823_at): −1.5 folds | MYO1C Myosin IC, gene expression ratio to no drug control (D) ([8]; probe 225080_at): −1.5 folds | expression ratio to the control, myosin family ([8]; span over probes of Table 7): −1.5 to −2.2 folds
